# Literature values as cited in patent US11395831B2, “Combination products of tobramycin compounds and dexameihasone compounds” (Somerset Therapeutics, LLC, priority 2020, dated 2022).
smiles,measurement,value
"NC[C@H]1O[C@H](O[C@H]2[C@H](O)[C@@H](O[C@H]3O[C@H](CO)[C@@H](O)[C@H](N)[C@H]3O)[C@H](N)C[C@@H]2N)[C@H](N)C[C@@H]1O [tobramycin, 0-{3-amino-3-deoxy-α-D-gluco-pyranosyl-(1→4)}-0-{2,6-diamino-2,3,6-trideoxy-α-D-ribohexo-pyranosyl-(1→6)}-2-deoxystreptamine]",solubility in water,94 mg/mL
